Values after ≈ are worked out from the molar mass of the structure shown.
Assays:
C. albicans CA98001 = experiment: Anti-Candida in vitro assay (Alamar Blue), C. albicans CA98001; assay type: cell-based; settings: for MIC: Candida albicans, CA98001, 24 h
Procedure: (§1) Test fungal strains were obtained from the American Type Culture Collection (ATCC) or were clinical isolates from the Laboratory of Parasitology and Medical Mycology, Centre Hospitalier Universitaire (CHU) of Nantes. The strains were maintained on Sabouraud agar slants and were subcultured 24 h before used. The activity of the target compounds 8a–g and 11a–m was determined by the method previously described. Briefly, molecules were diluted in RPMI 1640 medium supplemented with 0.165 M morpholinopropanesulphonic acid (Sigma-Aldrich, Saint-Quentin Fallavier, France), 2% glucose, and antibiotics. Candida suspensions were prepared in RPMI 1640 medium (Sigma-Aldrich, Saint-Quentin Fallavier, France) adjusted to give a final concentration of 10^3 cells/mL, and a 96-well microplate (Nunc, D. Dutscher, Brumath, France) was seeded with 100 µL. Each concentration of molecules (100 µL) to be tested was added (in triplicate) and plates were incubated at 37 °C for 24 h. The cellular viability was evaluated on the Fluorolite 1000 (Dynatech, France) with an excitation at 550 nm and an emission at 590 nm after a 4 h incubation with 10 µL of Alamar Blue®. […] MIC was expressed as the mean of the triplicate values. KTC and FLC were used as standards.

[1] = test system: ATCC2091 Candida albicans strain; experiment: Anti-Candida in vitro assay, ATCC2091; assay type: cell-based; settings: Candida albicans ATCC2091, mean of triplicate; read-out: MIC (IC80) ATCC2091
Procedure: as §1

[2] = test system: CA98002 (Candida albicans); experiment: Anti-Candida in vitro assay, CA98002; assay type: cell-based; settings: Candida albicans CA98002, mean of triplicate; read-out: MIC (IC80) CA98002
Procedure: as §1

[3] = test system: CA98005 (Candida albicans); experiment: Anti-Candida in vitro assay, CA98005; assay type: cell-based; settings: Candida albicans CA98005, mean of triplicate; read-out: MIC (IC80) CA98005
Procedure: as §1

[4] = test system: ATCC6258 Candida krusei strain; experiment: Anti-Candida in vitro assay, ATCC6258; assay type: cell-based; settings: Pichia kudriavzevii; Candida krusei ATCC6258, mean of triplicate; read-out: MIC (IC80) ATCC6258
Procedure: as §1

CK98002 (Candida krusei) = experiment: Anti-Candida in vitro assay, CK98002; assay type: cell-based; settings: Pichia kudriavzevii; Candida krusei CK98002, mean of triplicate; read-out: MIC (IC80) CK98002
Procedure: as §1

CK98003 (Candida krusei) = experiment: Anti-Candida in vitro assay, CK98003; assay type: cell-based; settings: Pichia kudriavzevii; Candida krusei CK98003, mean of triplicate; read-out: MIC (IC80) CK98003
Procedure: as §1

[5] = test system: CL98001 (Candida lusitaniae); experiment: Anti-Candida in vitro assay, CL98001; assay type: cell-based; settings: Clavispora lusitaniae; Candida lusitaniae CL98001, mean of triplicate; read-out: MIC (IC80) CL98001
Procedure: as §1

[6] = test system: ATCC90018 Candida parapsilosis strain; experiment: Anti-Candida in vitro assay, ATCC90018; assay type: cell-based; settings: Lodderomyces parapsilosis; Candida parapsilosis ATCC90018, mean of triplicate; read-out: MIC (IC80) ATCC90018
Procedure: as §1

MRC5 toxicity assay = assay type: cell-based, human; settings: human, MRC-5 human fetal lung fibroblast cells, MRC-5 cells, 96-h incubation, mean of triplicate; read-out: Cytotoxicity IC50 on MRC-5 cells
Procedure: The cytotoxicity of compounds was studied with human fibroblast (MRC5). Cells were grown in RPMI 1640 medium (Sigma-Aldrich, Saint-Quentin Fallavier, France) supplemented with 10% fetal bovin serum (Sigma–Aldrich). Drugs were tested at three concentrations (100, 10, and 1 µM) in triplicate. After a 96-h incubation time, cytotoxicity was measured on the Fluorolite 1000 (Dynatech, Guyancourt, France) after a 4-h incubation time with Uptiblue® (Interchim, Montluçon, France). Inhibitory concentration 50 is a mean of triplicate values. A toxicity index was determined as follow: IC50 against MRC5/Geometric mean of the MICs against Candida spp..

[7] = MIC = IC80, 24 h at 37 °C, mean of triplicate

Row | Structure (SMILES) | MIC (C. albicans CA98001; [7]) | MIC (= IC80) C. albicans CA98001 (C. albicans CA98001; [7]) | MIC [1] | MIC [2] | MIC [3] | MIC [4] | MIC (CK98002 (Candida krusei)) | MIC (CK98003 (Candida krusei)) | MIC [5] | MIC [6] | melting point | IC50 at 96 h (MRC5 toxicity assay) | Times more active than FLC against C. albicans CA98001 (C. albicans CA98001; ratio of MIC values versus FLC)
1 | Cc1cn(CC(O)(Cn2cncn2)c2ccc(F)cc2F)c2ccccc12 (stereo not drawn) [Compound 11h, 2-(2,4-Difluorophenyl)-3-(3-methyl-1H-indol-1-yl)-1-(1H-1,2,4-triazol-1-yl)propan-2-ol] |  |  | 0.136 µg/mL (≈ 0.369 µM) | 0.033 µg/mL (≈ 0.0896 µM) | 0.265 µg/mL (≈ 0.719 µM) | 1.4 µg/mL (≈ 3.8 µM) | 0.81 µg/mL (≈ 2.2 µM) | 0.7 µg/mL (≈ 1.9 µM) | 0.023 µg/mL (≈ 0.0624 µM) | 0.309 µg/mL (≈ 0.839 µM) | 112 to 113 °C | 105 µM | 
2 | Cc1cc2ccccc2n1CC(O)(Cn1cncn1)c1ccc(Cl)cc1Cl (stereo not drawn) [Compound 11g, 2-(2,4-Dichlorophenyl)-3-(2-methyl-1H-indol-1-yl)-1-(1H-1,2,4-triazol-1-yl)propan-2-ol] | 0.0058 µg/mL (≈ 0.0145 µM) |  | 0.526 µg/mL (≈ 1.31 µM) | 0.321 µg/mL (≈ 0.8 µM) | 0.269 µg/mL (≈ 0.67 µM) | > 40 µg/mL | > 40 µg/mL | > 40 µg/mL | 0.181 µg/mL (≈ 0.451 µM) | > 40 µg/mL | 170 to 171 °C | 157 µM | 
3 | OC(Cn1ccnn1)(Cn1ccc2ccccc21)c1ccc(Cl)cc1Cl (stereo not drawn) [Compound 11l, 2-(2,4-Dichlorophenyl)-3-(1H-indol-1-yl)-1-(1H-1,2,3-triazol-1-yl)propan-2-ol] | > 100 µg/mL |  |  |  |  |  |  |  |  |  | 210 to 211 °C |  | 

Further molecules by falling MIC (C. albicans CA98001; [7]), results first:

Row | MIC (C. albicans CA98001; [7]) | MIC (= IC80) C. albicans CA98001 (C. albicans CA98001; [7]) | MIC [1] | MIC [2] | MIC [3] | MIC [4] | MIC (CK98002 (Candida krusei)) | MIC (CK98003 (Candida krusei)) | MIC [5] | MIC [6] | melting point | Structure (SMILES) | IC50 at 96 h (MRC5 toxicity assay) | Times more active than FLC against C. albicans CA98001 (C. albicans CA98001; ratio of MIC values versus FLC)
4 | 0.23 µg/mL (≈ 0.597 µM) |  | 2.12 µg/mL (≈ 5.5 µM) | 0.32 µg/mL (≈ 0.83 µM) | 0.258 µg/mL (≈ 0.669 µM) | 22.1 µg/mL (≈ 57.4 µM) | 18.3 µg/mL (≈ 47.5 µM) | 16.2 µg/mL (≈ 42.1 µM) | 0.173 µg/mL (≈ 0.449 µM) | 2.47 µg/mL (≈ 6.4 µM) | 246 to 247 °C | OC(Cn1ccnc1)(Cn1ccc2ccccc21)c1ccc(C(F)(F)F)cc1 (stereo not drawn) [Compound 11e, 1-(1H-Imidazol-1-yl)-3-(1H-indol-1-yl)-2-(4-trifluoromethylphenyl)propan-2-ol] | 36 µM | 
5 | 0.21 µg/mL (≈ 0.624 µM) | 0.21 µg/mL (≈ 0.624 µM) | 0.437 µg/mL (≈ 1.3 µM) | 0.404 µg/mL (≈ 1.2 µM) | 0.437 µg/mL (≈ 1.3 µM) | 19.2 µg/mL (≈ 57.2 µM) | 21.4 µg/mL (≈ 63.7 µM) | 18.7 µg/mL (≈ 55.5 µM) | 0.259 µg/mL (≈ 0.77 µM) | 2.52 µg/mL (≈ 7.5 µM) | 190 to 191 °C | OC(Cn1cncn1)(Cn1ccc2ccccc21)c1ccc(F)cc1 (stereo not drawn) [Compound 11a, 2-(4-Fluorophenyl)-3-(1H-indol-1-yl)-1-(1H-1,2,4-triazol-1-yl)propan-2-ol] | > 100 µM | 
6 | 0.157 µg/mL (≈ 0.411 µM) |  | 0.256 µg/mL (≈ 0.669 µM) | 0.382 µg/mL (≈ 0.999 µM) | 2.41 µg/mL (≈ 6.3 µM) | 18 µg/mL (≈ 47 µM) | 11.5 µg/mL (≈ 30 µM) | 13.9 µg/mL (≈ 36.4 µM) | 0.256 µg/mL (≈ 0.669 µM) | 4.01 µg/mL (≈ 10.5 µM) | 102 to 103 °C | Cc1c(C)n(CC(O)(Cn2cncn2)c2ccc(F)cc2F)c2ccccc12 (stereo not drawn) [Compound 11j, 2-(2,4-Difluorophenyl)-3-(2,3-dimethyl-1H-indol-1-yl)-1-(1H-1,2,4-triazol-1-yl)propan-2-ol] | 25 µM | 
7 | 0.00035 µg/mL (≈ 0.00099 µM) |  | 0.726 µg/mL (≈ 2.05 µM) | 0.609 µg/mL (≈ 1.72 µM) | 0.439 µg/mL (≈ 1.24 µM) | 3.86 µg/mL (≈ 10.9 µM) | 5.69 µg/mL (≈ 16.1 µM) | 5.21 µg/mL (≈ 14.7 µM) | 0.068 µg/mL (≈ 0.192 µM) | 0.614 µg/mL (≈ 1.74 µM) | 166 to 168 °C | OC(Cn1ccnc1)(Cn1ccc2ccccc21)c1ccc(F)cc1F (stereo not drawn) [Compound 8d, 2-(2,4-Difluorophenyl)-1-(1H-imidazol-1-yl)-3-(1H-indol-1-yl)propan-2-ol] | 34 µM | 57
